Experimental data from patent EP0415456A2, “Xanthine compounds” (priority 1989, dated 1991).
Like-named read-outs stand apart in the source and are kept apart here.

Assays:
male dd-strain mice = experiment: acute toxicity test; type: in vivo
Description: […]. The Minimum lethal dose (MLD) of the compounds was determined by observing whether or not the mice were alive after 7 days of the administration.

A₂ receptor = target: T1, A₂ receptor (Rattus norvegicus, UniProt P30543); experiment: Adenosine A2 receptor binding (3H-NECA binding); conditions: for inhibition at 10 µM / inhibition at 100 µM: read-out: A₂ Receptor Inhibition (%)
T1 construct: A precipitate was prepared from rat corpus striatum; from tissue; host or cells: rat corpus striatum membrane preparation
T1 sequence (P30543 whole entry): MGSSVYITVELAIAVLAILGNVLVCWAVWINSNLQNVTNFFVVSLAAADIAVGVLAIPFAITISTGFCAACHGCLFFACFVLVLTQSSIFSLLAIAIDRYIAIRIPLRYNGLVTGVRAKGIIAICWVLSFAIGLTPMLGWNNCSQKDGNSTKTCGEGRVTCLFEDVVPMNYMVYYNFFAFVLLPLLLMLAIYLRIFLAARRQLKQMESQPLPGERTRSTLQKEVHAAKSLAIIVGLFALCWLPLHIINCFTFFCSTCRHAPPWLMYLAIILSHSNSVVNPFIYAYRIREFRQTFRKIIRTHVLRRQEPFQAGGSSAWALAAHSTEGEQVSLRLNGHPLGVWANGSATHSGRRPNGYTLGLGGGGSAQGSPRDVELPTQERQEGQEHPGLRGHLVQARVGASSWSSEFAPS
Description: A precipitate was prepared from rat corpus striatum in a similar manner as in 1) above. The precipitate was suspended by adding a 50 mM Tris HCl buffer containing 10 mM magnesium chloride and 0.02 unit/mg (tissue) of adenosine deaminase (manufactured by Sigma Co.) to adjust the concentration of tissue to 5 mg (wet weight)/mℓ.
The mixture was incubated at 25°C within 120 minutes. The resulting mixture was treated in the same manner as in 1) above to determine its radioactivity.
The inhibition rate of the test compound against the binding of A₂ receptor (³H-NECA binding) was calculated from the following equation: [formula]

[1] = test system: glycerol-induced renal failure model; experiment: renal-protecting effect (glycerol-induced renal failure model); type: in vivo; conditions: male Wistar rats; for suppression of increases of the serum creatinine and of urine-nitrogen: 0.01 - 10 mg/kg i.p., 24 hours after 50% glycerol s.c. (p < 0.05)
Description: A renal failure is a state wherein the renal function is lowered and the homeostasis of a body fluid can be no more maintained. It is known that an acute renal failure characteristic of uriniferous tubule disorder is caused by subcutaneous or intramuscular injection of glycerol to rats [Can. J. Physiol.
Male Wistar rats were kept deprived or water for 18 hours, and served for the test. A test compound was intraperitoneally administered to the rats (dosage: 1 mℓ/kg) and the rats were anesthetized with ether and 50% glycerol was subcutaneously administered (dosage: 0.8mℓ/100g) to the rats, pinching the dorsal skin. Twenty four hours after the administration of glycerol, the rats were anesthetized with ether and 5 mℓ of blood were collected from the abdominal aorta. The collected blood was allowed to stand for 30 minutes or longer and then centrifuged at 3,000 rpm for 10 minutes, and the amounts of the serum creatinine and urine-nitrogen (UN) contained in the serum were determined by auto analyzer (Olympus AU510) or measured by a creatinine test Wako (Jaffé method) and UN Test Wako (diacetylmonooxime direct method). Both are manufactured by Wako Pure Chemicals Co.
On the other hand, the left kidneys of the blood-sampled rats were removed and placed in formalin-filled vial bottles, and used as samples for the pathological examination.

Adenosine A₁ Receptor = target: T2, Adenosine A₁ Receptor (Cavia porcellus, UniProt P47745); experiment: Adenosine A1 receptor binding (3H-CHA binding); parameters: species or system guinea pig; conditions: for Ratio of Ki Values [A₂/A₁]: A₂ Ki (rat corpus striatum) / A₁ Ki (guinea pig cerebrum); for Ki: calculated from Cheng-Prusoff's equation, ³H-CHA; for Ki / inhibition at 100 µM / inhibition at 10 µM: guinea pig cerebrum; for inhibition at 100 µM: concentration of tested compound 10⁻⁴ M; for inhibition at 100 µM / inhibition at 10 µM: ³H-CHA 1.1 nM; for inhibition at 10 µM: concentration of tested compound 10⁻⁵ M
T2 construct: from tissue; host or cells: guinea pig cerebrum membrane preparation
T2 sequence (P47745 1-326): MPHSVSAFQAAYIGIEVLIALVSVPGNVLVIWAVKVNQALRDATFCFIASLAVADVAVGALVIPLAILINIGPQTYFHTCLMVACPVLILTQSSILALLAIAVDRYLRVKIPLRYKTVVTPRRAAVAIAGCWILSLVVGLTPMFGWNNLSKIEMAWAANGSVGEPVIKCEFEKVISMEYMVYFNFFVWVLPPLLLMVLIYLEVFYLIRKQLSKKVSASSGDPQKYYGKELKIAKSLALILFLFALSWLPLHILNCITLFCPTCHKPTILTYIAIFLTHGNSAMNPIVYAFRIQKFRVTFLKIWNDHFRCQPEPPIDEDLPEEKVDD
Description: Cerebrum of a guinea pig was suspended into ice cooled 50 mM tris hydroxymethyl aminomethane hydrochloride (Tris HCl) buffer (pH = 7.7), by using Polytron homogenizer (manufactured by Kinematica Co.). The suspension was centrifuged (50,000 x g, 10 minutes), and the precipitate was resuspended by adding the same volume of 50 mM Tris HCl buffer. The suspension was centrifuged under the same conditions, and the precipitate obtained was suspended once again by adding 10 volumes of 50 mM Tris HCl. The tissue suspension was incubated at 37°C for 30 minutes in the presence of 0.02 units/mg tissue of adenosine deaminase (manufactured by Sigma Co.). The resulting tissue suspension was recentrifuged (50,000 x g, 10 minutes), and 50 mM Tris HCl was added to the precipitate to adjust the concentration of tissue to 10 mg (wet weight)/mℓ.
The mixture was incubated at 25°C for 90 minutes, and the resulting reaction was stopped by rapid vacuum filtration through a glass fiber filter (GF/C manufactured by Whatman Co.) followed by immediately washing three times with 5 mℓ each of ice cold 50 mM Tris HCl buffer. […] Its radioactivity was then determined by a scintillation counter (manufactured by Packard Instrument Co.).
The inhibition rate of the test compounds against the binding of A₁ […] (³H-CHA binding) was calculated from the following equation: [formula]
• 1. […] The inhibition constant (Ki value) shown in the table was calculated from Cheng-Prusoff's equation.

Wistar rats = experiment: diuretic effect; type: in vivo; conditions: urine collected for 6 hours; for Increase in K⁺ excretion (%) / Increase in Na⁺excretion (%) / Increase in Urine (%): relative to control; for Na⁺/K⁺: relative value of control (control 1.00)
Description: Wistar rats (male: 150 - 300 g) were starved for 18 hours prior to the administration of the test compounds. […] Urine was collected for 6 hours after the administration. Urine volume was measured and the electrolytes (Na+ and K+) in the urine were determined with a flame photome[…], Hitachi Ltd., Japan). All parameters are expressed as relative values of control.

[2] = ³H-NECA with CPA, rat corpus striatum, read-out: A₂ Receptor Ki
[3] = amount of the administration 6.25 mg.kg, oral

Row | Compound | inhibition at 10 µM (A₂ receptor) [%] | inhibition at 100 µM (A₂ receptor) [%] | Ki (A₂ receptor; [2]) [nM] | suppression of increases of the serum creatinine and of urine-nitrogen [1] | Ratio of Ki Values [A₂/A₁] (Adenosine A₁ Receptor) | Ki (Adenosine A₁ Receptor) [nM] | inhibition at 100 µM (Adenosine A₁ Receptor) [%] | inhibition at 10 µM (Adenosine A₁ Receptor) [%] | Increase in K⁺ excretion (%) (Wistar rats; 25 mg/kg oral) | Increase in Na⁺excretion (%) (Wistar rats; 25 mg/kg oral) | Increase in Urine (%) (Wistar rats; 25 mg/kg oral) | Na⁺/K⁺ (Wistar rats; 25 mg/kg oral) | also measured
1 | CCCn1c(=O)c2c(nc([C@@H]3CC[C@H]4CCC[C@H]43)n2C)n(CCC)c1=O (relative stereo) [Compound 18, 8-[(1R*,2R*,5R*)-Bicyclo[3.3.0]octan-2-yl]-1,3-dipropyl-7-methylxanthine] |  |  |  |  |  |  |  |  |  |  |  |  | Minimum lethal dose (MLD) (male dd-strain mice; mouse, in vivo, 10080 min): more than 300 mg/kg
2 | CCCn1c(=O)c2[nH]c(-c3ccc(S(=O)(=O)N(C)CCN(C)C)cc3)nc2n(CCC)c1=O [PD 115199, reference compound] | 94 | 98 | 26 | totally ineffective | 0.14 | 190 | 100 | 97 |  |  |  |  | 
3 | 8-[(1R*,2R*,5S*)-Bicyclo[2.2.1]heptan-2-yl]methyl-1,3-dipropylxanthine [Compound 16] |  |  |  | significantly suppressed |  |  |  |  | 38 | 191 | 141 | 2.12 | pathological examination of removed kidneys: state of kidneys ([1]; i.p., left kidney removed 24 hours after 50% glycerol s.c.): significantly improved
4 | CCCn1c(=O)c2c(nc(C34CC5CC(CC3C5)C4)n2C)n(CCC)c1=O [Compound 20, 1,3-Dipropyl-7-methyl-8-(noradamantan-3-yl)xanthine] |  |  |  |  |  |  |  |  |  |  |  |  | Minimum lethal dose (MLD) (male dd-strain mice; 300 mg/kg orally administered, male dd-strain mice, observed 7 days after administration): more than 300 mg/kg
5 | CCCCn1c(=O)c2[nH]c(C34CC5CC(CC3C5)C4)nc2n(CCCC)c1=O [Compound 29, 8-(Noradamantan-3-yl)-1,3-dibutylxanthine] | 72 | 78 | 970 |  | 107 | 9.1 | 100 | 100 | 65 | 137 | 123 | 1.43 | 
6 | Cn1c(=O)c2[nH]cnc2n(C)c1=O [Aminophylline, reference compound] |  |  |  | weak effect |  |  |  |  | 17 | 89 | 34 | 1.62 | 
7 | CCCn1c(=O)c2[nH]c(-c3ccc(OCC(=O)NCCN)cc3)nc2n(CCC)c1=O [XAC, reference compound] |  |  |  | weak effect |  |  |  |  |  |  |  |  | 
8 | CCCn1c(=O)c2[nH]c([C@H]3CC[C@H]4CCC[C@H]43)nc2n(CCC)c1=O (relative stereo) [Compound 6, 8-[(1R*,2S*,5R*)-bicyclo[3.3.0]oxtan-2-yl]-1,3-dipropylxanthine] | 70 | 85 | 560 |  | 112 | 5 | 101 | 100 |  |  |  |  | Increase in K⁺ excretion (%) (Wistar rats; [3]): 87%; Increase in Na⁺excretion (%) (Wistar rats; [3]): 252%; Increase in Urine (%) (Wistar rats; [3]): 330%; Na⁺/K⁺ (Wistar rats; [3]): 1.88
9 | NS(=O)(=O)c1cc(C(=O)O)c(NCc2ccco2)cc1Cl [Furosemide, reference compound] |  |  |  |  |  |  |  |  |  |  | 75 | 1.07 | effect on serum creatinine ([1]; i.p., 24 hours after 50% glycerol s.c.): showed a tendency to increase the serum creatinine
10 | CCn1c(=O)c2[nH]c(C34CC5CC(CC3C5)C4)nc2n(CC)c1=O [Compound 28, 8-(Noradamantan-3-yl)-1,3-diethylxanthine] | 61 | 78 | 940 |  | 132 | 7.1 | 101 | 100 |  |  |  |  | 
11 | Nc1nc2ccc(Cl)cc2c2nc(-c3ccco3)nn12 [CGS 15943, reference compound] | 99 | 97 |  |  |  |  |  |  |  |  |  |  | Ki (A₂ receptor): 0.73 nM
12 | CC(C)Cn1c(=O)n(C)c(=O)c2[nH]c(C34CC5CC(CC3C5)C4)nc21 [Compound 30, 8-(Noradamantan-3-yl)-3-isobutyl-1-methylxanthine] |  |  |  |  |  |  |  |  | 50 | 126 | 112 | 1.50 | 
